Molecules are shown by their SMILES.

The results in this text go back to ChEMBL document CHEMBL5120922, “Discovery, Optimization, and Evaluation of Potent and Selective PI3Kδ-γ Dual Inhibitors for the Treatment of B-cell Malignancies” (J Med Chem, 2022).

Data set [1] concerns the target T1, Phosphatidylinositol 4,5-bisphosphate 3-kinase catalytic subunit gamma isoform (Homo sapiens, UniProt P48736). Put plainly: Inhibition of N-terminal His6-tagged recombinant full length human PI3Kgamma expressed in baculovirus infected Sf21 insect cells at 0.1 uM by HTRF assay relative to control. For orientation: Time-resolved FRET reads energy transfer from a long-lived donor to a nearby acceptor.

For data set [2], the target named is Phosphatidylinositol 4,5-bisphosphate 3-kinase catalytic subunit alpha isoform (Homo sapiens, UniProt P42336). Put plainly: Inhibition of N-terminal His6-tagged recombinant full length human PI3Kalpha expressed in baculovirus infected Sf21 insect cells at 1 uM by HTRF assay relative to control.
Phosphatidylinositol 4,5-bisphosphate 3-kinase catalytic subunit alpha isoform, sequence (P42336 whole entry, canonical isoform): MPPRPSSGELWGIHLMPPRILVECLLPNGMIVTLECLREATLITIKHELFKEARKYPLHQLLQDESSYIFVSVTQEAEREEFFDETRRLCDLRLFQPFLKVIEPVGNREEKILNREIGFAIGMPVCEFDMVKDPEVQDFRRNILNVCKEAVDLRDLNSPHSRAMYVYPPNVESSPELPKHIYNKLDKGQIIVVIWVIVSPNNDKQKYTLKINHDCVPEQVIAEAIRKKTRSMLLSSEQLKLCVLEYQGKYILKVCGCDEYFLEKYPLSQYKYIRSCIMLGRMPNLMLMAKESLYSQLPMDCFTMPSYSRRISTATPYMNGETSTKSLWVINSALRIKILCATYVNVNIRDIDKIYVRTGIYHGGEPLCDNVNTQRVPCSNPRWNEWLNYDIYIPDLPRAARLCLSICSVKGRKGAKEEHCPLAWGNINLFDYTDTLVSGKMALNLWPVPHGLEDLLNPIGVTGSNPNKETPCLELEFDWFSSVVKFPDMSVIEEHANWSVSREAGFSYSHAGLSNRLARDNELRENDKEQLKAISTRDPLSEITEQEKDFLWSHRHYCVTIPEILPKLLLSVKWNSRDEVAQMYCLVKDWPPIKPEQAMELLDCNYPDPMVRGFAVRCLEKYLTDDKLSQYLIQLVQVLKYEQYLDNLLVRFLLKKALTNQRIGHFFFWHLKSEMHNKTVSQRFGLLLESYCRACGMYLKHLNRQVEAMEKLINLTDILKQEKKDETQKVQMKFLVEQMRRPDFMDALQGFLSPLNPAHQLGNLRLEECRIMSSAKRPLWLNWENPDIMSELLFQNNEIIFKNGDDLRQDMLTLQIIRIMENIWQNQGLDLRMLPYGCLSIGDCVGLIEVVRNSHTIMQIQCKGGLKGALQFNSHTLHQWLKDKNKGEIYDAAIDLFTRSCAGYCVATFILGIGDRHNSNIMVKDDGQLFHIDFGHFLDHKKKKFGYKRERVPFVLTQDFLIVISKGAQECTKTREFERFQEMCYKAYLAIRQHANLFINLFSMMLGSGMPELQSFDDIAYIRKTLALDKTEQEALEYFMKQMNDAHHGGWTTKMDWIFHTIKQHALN
Data set [3] can be described thus: Metabolic stability in human liver microsomes assessed as clearance at 1 uM measured upto 60 mins in presence of NADPH by measuring protein. The following applies: 1 h. The data set is classed as ADME, Microsome.
The nature of data set [4]: Metabolic stability in human liver microsomes assessed as compound remaining at 1 uM measured upto 60 mins in presence of NADPH. The data set is classed as ADME, Microsome. The following applies: read-out: Stability. Background: Liver microsomes are vesicles of endoplasmic reticulum, rich in cytochrome P450 enzymes.
Data set [5] deals with Phosphatidylinositol 4,5-bisphosphate 3-kinase catalytic subunit beta isoform (Homo sapiens, UniProt P42338). Kind of data set: Inhibition of N-terminal His6-tagged recombinant full length human PI3Kbeta expressed in baculovirus infected Sf21 insect cells at 1 uM by HTRF assay relative to control.
Phosphatidylinositol 4,5-bisphosphate 3-kinase catalytic subunit beta isoform, sequence (P42338 whole entry, looked up, canonical isoform): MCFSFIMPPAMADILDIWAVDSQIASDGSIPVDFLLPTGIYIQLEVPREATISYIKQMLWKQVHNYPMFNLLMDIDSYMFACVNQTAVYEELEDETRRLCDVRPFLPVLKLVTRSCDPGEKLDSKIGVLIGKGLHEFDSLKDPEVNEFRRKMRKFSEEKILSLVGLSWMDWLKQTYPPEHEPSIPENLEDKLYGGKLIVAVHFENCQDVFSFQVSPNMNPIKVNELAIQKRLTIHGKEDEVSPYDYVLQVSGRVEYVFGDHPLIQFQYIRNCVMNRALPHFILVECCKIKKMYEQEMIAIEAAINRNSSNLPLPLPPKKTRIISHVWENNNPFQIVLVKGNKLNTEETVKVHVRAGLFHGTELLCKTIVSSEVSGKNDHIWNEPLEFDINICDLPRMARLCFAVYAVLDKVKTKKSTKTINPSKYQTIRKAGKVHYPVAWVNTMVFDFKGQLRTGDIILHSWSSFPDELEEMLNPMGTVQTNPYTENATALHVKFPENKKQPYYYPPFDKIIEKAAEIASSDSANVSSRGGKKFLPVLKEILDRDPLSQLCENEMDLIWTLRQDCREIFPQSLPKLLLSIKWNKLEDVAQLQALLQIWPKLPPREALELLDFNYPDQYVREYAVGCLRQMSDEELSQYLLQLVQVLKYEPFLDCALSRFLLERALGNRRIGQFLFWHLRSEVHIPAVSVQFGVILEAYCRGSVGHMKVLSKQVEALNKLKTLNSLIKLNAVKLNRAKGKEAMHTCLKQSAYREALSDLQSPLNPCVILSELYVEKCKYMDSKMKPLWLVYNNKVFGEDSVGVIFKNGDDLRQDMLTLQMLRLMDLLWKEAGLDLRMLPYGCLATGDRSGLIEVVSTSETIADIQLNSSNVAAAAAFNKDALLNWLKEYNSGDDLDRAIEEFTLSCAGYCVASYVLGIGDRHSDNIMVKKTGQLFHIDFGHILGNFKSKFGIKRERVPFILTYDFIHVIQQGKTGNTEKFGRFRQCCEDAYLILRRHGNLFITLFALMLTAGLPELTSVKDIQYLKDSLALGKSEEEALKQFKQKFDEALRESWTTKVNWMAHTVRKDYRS
The test system of another data set is DOHH-2. Put plainly: Antiproliferative activity against human DOHH-2 cells assessed as cell growth inhibition measured after 72 hrs by MTT assay. The data set is classed as functional, cell-based. The following applies: DOHH-2, 72 h. A general note: Formazan colour is commonly taken as a measure of viable cells.
The subject of the next data set is SUD4. Put plainly: Antiproliferative activity against human SU-DHL-4 cells assessed as cell growth inhibition measured after 72 hrs by MTT assay. The data set is classed as functional, cell-based. The settings on record: SU-DHL-4, 72 h.
Data set [6] in a line: Metabolic stability in human liver microsomes assessed as half life at 1 uM measured upto 60 mins in presence of NADPH. The data set is classed as ADME, Microsome.
For the next data set, the system named is SU-DHL-6. Kind of data set: Antiproliferative activity against human SU-DHL-6 cells assessed as cell growth inhibition measured after 72 hrs by MTT assay. The data set is classed as functional, cell-based. The settings on record: SU-DHL-6, 72 h.
The target in data set [7] is T2, Phosphatidylinositol 4,5-bisphosphate 3-kinase catalytic subunit delta isoform (Homo sapiens) (UniProt O00329).
T2 sequence (whole entry): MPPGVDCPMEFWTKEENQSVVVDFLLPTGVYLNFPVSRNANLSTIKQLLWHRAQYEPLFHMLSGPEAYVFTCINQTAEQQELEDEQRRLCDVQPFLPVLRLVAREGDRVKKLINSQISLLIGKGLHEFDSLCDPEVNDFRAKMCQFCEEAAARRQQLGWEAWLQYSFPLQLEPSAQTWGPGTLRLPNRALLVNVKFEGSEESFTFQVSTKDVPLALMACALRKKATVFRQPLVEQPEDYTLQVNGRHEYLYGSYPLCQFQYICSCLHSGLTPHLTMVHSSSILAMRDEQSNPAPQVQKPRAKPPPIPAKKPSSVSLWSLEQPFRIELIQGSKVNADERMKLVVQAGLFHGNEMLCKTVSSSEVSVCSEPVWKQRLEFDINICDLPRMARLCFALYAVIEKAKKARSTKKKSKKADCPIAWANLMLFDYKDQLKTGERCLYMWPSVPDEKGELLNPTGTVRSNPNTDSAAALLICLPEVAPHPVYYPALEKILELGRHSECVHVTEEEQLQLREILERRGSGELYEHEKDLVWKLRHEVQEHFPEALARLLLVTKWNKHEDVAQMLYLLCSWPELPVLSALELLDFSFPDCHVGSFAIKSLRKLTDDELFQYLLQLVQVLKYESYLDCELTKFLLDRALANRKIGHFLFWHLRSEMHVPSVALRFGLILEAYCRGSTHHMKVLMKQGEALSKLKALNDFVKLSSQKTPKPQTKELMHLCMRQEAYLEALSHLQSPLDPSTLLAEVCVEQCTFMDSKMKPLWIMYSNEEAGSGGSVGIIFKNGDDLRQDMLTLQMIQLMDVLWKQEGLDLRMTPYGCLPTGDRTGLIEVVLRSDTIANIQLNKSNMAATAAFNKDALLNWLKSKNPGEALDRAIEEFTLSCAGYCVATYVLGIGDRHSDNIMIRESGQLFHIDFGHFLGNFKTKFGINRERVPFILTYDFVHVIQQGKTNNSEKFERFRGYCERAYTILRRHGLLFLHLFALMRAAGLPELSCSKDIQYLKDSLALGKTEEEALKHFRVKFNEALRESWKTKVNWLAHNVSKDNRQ
Kind of data set: Inhibition of N-terminal His6-tagged recombinant full length human PI3Kdelta expressed in baculovirus infected Sf21 insect cells at 0.1 uM by HTRF assay relative to control.

The target of data set [8] is T2, Phosphatidylinositol 4,5-bisphosphate 3-kinase catalytic subunit delta isoform (Homo sapiens). Kind of data set: Inhibition of N-terminal His6-tagged recombinant full length human PI3Kdelta expressed in baculovirus infected Sf21 insect cells at 1 uM by HTRF assay relative to control.
The target of data set [9] is T1, Phosphatidylinositol 4,5-bisphosphate 3-kinase catalytic subunit gamma isoform. Put plainly: Inhibition of N-terminal His6-tagged recombinant full length human PI3Kgamma expressed in baculovirus infected Sf21 insect cells at 1 uM by HTRF assay relative to control.

T1 sequence (P48736 whole entry, looked up, canonical isoform): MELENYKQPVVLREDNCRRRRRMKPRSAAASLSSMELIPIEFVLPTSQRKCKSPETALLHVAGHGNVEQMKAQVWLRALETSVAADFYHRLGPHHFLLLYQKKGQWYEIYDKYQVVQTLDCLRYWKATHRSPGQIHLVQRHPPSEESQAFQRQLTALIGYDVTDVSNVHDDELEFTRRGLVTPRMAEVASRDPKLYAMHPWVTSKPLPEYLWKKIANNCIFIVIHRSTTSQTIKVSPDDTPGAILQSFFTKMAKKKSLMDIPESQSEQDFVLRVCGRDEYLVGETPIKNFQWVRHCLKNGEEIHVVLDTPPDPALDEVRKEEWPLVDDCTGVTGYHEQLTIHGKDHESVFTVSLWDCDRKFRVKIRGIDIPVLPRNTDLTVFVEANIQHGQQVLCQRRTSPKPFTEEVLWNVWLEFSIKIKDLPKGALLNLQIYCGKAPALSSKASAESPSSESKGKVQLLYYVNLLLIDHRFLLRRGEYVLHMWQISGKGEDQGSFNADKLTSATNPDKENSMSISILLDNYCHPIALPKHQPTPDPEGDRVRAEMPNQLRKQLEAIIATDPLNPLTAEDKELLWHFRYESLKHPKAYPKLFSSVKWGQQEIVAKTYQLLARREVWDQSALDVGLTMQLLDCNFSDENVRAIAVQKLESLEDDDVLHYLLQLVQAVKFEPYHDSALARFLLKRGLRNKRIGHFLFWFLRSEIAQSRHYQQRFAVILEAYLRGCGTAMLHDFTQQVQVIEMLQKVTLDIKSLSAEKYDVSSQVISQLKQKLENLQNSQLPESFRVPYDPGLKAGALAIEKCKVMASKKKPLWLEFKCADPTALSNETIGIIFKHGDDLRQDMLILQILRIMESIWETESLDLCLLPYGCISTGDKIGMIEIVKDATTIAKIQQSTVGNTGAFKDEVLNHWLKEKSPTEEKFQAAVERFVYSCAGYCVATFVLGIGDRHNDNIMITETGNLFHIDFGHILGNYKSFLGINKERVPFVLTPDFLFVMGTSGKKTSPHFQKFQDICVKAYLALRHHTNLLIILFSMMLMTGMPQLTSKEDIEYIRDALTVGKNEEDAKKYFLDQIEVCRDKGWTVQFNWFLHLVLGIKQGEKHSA

Broadly, the inhibition is the drop in the measured response relative to a control, in per cent. For orientation: IC50 means the concentration needed to halve the response being measured. As usually defined, the half-life is the time needed for the level to fall by half in the phase considered. For `COc1cncc(-c2cccc3nc([C@@H]4CC[C@H](C)N4c4nc(N)nc(N)c4C#N)n(-c4ccccc4)c(=O)c23)c1`, the inhibition in data set [1] came to 12%; in data set [2], 13%; in data set [5], 19%. Further, in [3], the CLH amounted to 20.8 mL/min/g. Besides, the remaining at 1 h, 1 µM in data set [4] was 59.9%. The IC50 came to 290 nM in the data set with DOHH-2, 120 nM with SUD4 and 190 nM in the data set on SU-DHL-6. In addition, the half-life at 1 µM in [6] stood at 1.11 h.
For the compound `C[C@H]1CC[C@@H](c2nc3cccc(Cl)c3c(=O)n2-c2ccccc2)N1c1nc(N)nc2[nH]ccc12`, the inhibition is 88% in [1]; 74% in data set [7]; 82% in [2]; 84% in data set [5]; 37% in [8]; 41% in [9]. Further, the IC50 in the data set on DOHH-2 turned out to be 3590 nM; in the data set with SUD4, 4930 nM; in the data set with SU-DHL-6 it was 1800 nM.
`C[C@H]1CC[C@@H](c2nc3cccc(Cl)c3c(=O)n2N2CCOCC2)N1c1nc(N)nc2[nH]cnc12`: the inhibition is 45% in data set [1]; 81% in data set [7]; 91% in data set [2]; 53% in data set [5]; 5% in data set [8]; -2% in data set [9]. Also, the IC50 in the data set with DOHH-2 was found to be 1440 nM; with SUD4, 600 nM; in the data set on SU-DHL-6, 420 nM.
For the compound `C[C@H]1CC[C@@H](c2nc3cccc(Cl)c3c(=O)n2-c2ccccc2)N1c1ccnc(N)n1`, the inhibition in data set [1] worked out at 99%; in data set [7], 88%; in data set [2] it was 78%; in [5], 106%; in [8] it was 11%; in data set [9], 100%. Also, the IC50 was 3970 nM in the data set with DOHH-2, 1200 nM in the data set on SUD4 and 1840 nM in the data set with SU-DHL-6.
Consider `C[C@H]1CC[C@@H](c2nc3cccc(Cl)c3c(=O)n2-c2cc(F)cc(F)c2)N1c1nc(N)nc2[nH]cnc12`, for which the inhibition in data set [1] came to 51%; in data set [7], 12%; in data set [2], 90%; in data set [5] it was 68%; in data set [8], 7%; in data set [9] it was 2%. Moreover, the IC50 was found to be 2210 nM with DOHH-2, 770 nM in the data set on SUD4 and 840 nM in the data set with SU-DHL-6.
For `C[C@H]1CC[C@@H](c2nc3cccc(Cl)c3c(=O)n2-c2cccnc2)N1c1nc(N)nc2[nH]cnc12`, the inhibition in data set [1] is 39%; in data set [7], 15%; in data set [2], 89%; in data set [5], 54%; in [8] it was 7%; in data set [9], 0%. Further, the IC50 in the data set on DOHH-2 is 650 nM; in the data set with SUD4, 510 nM; in the data set on SU-DHL-6, 410 nM.
On to `N#Cc1c(N)nc(N)nc1N1[C@H](c2nc3cccc(Cl)c3c(=O)n2-c2cc(F)cc(F)c2)C[C@@H]2CCCC[C@@H]21`, for which the inhibition is 85% in data set [1]; 34% in data set [7]; 79% in [2]; 84% in [5]; 18% in data set [8]; 49% in data set [9]. The IC50 was 3540 nM in the data set with DOHH-2, 1830 nM in the data set on SUD4 and 2750 nM in the data set with SU-DHL-6.
With `Cc1cc(N2[C@@H](C)CC[C@H]2c2nc3cccc(Cl)c3c(=O)n2-c2ccccc2)nc(N)n1`, the inhibition in data set [1] turned out to be 99%; in data set [7] it was 93%; in data set [2] it was 96%; in data set [5] it was 105%; in [8], 75%; in data set [9], 96%. The IC50 in the data set on DOHH-2 came out at 1960 nM; in the data set with SUD4, 1120 nM; with SU-DHL-6, 1530 nM.
For the compound `C[C@H]1CC[C@@H](c2nc3cccc(Cl)c3c(=O)n2-c2cccc(F)c2)N1c1nc(N)nc2[nH]cnc12`, the inhibition in data set [1] was 1%; in [7], 5%; in data set [2] it was 58%; in data set [5], 57%; in [8], -4%. Besides, the IC50 in the data set with DOHH-2 worked out at 2610 nM; in the data set on SUD4, 350 nM; in the data set on SU-DHL-6, 480 nM.
Turning to `C[C@H]1CC[C@@H](c2nc3cccc(Cl)c3c(=O)n2-c2ccccc2)N1c1nc(F)nc2[nH]cnc12`, the inhibition in data set [1] was 76%; in data set [7] it was 27%; in data set [2], 49%; in data set [5], -1%; in data set [8], 13%; in data set [9] it was 34%. Moreover, the results for the 50% inhibitory concentration (IC50) in the data set with DOHH-2, in the data set on SUD4 and in the data set on SU-DHL-6 were 910 nM, 730 nM and 490 nM, respectively.
For the compound `C[C@H]1CC[C@@H](c2nc3cccc(Cl)c3c(=O)n2-c2ccccc2)N1c1cc(Cl)nc(N)n1`, the inhibition worked out at 97% in data set [1]; 76% in [7]; 88% in [2]; 92% in data set [5]; 23% in data set [8]; 96% in data set [9]. For the same compound, the IC50 in the data set with DOHH-2 turned out to be 2920 nM; with SUD4 it was 2900 nM; in the data set on SU-DHL-6, 3150 nM.
In the case of `C[C@H]1CC[C@@H](c2nc3cccc(Cl)c3c(=O)n2-c2cc(F)cc(F)c2)N1c1nc(N)nc(N)c1C#N`, the inhibition was 14% in data set [1]; 4% in data set [7]; 66% in [2]; 43% in [5]; 1% in data set [8]; -8% in data set [9]. The IC50 came out at 1170 nM in the data set on DOHH-2, 360 nM in the data set on SUD4 and 580 nM in the data set with SU-DHL-6.
For the compound `N#Cc1c(N)nc(N)nc1N1[C@H](c2nc3cccc(F)c3c(=O)n2-c2cc(F)cc(F)c2)C[C@@H]2CCCC[C@@H]21`, the inhibition in data set [1] is 93%; in data set [7] it was 82%; in data set [2], 84%; in data set [5], 98%; in data set [8] it was 23%; in [9], 75%. For the same compound, the IC50 was 2470 nM with DOHH-2, 1450 nM with SUD4 and 1480 nM in the data set on SU-DHL-6.
With `C[C@H]1CC[C@@H](c2nc3cccc(Cl)c3c(=O)n2N2CCOCC2)N1c1nc(N)nc(N)c1C#N`, the inhibition in data set [1] is 10%; in [7], 10%; in [2], 72%; in data set [5], 33%; in [8] it was 11%; in data set [9], 0%. For the same compound, the IC50 in the data set on DOHH-2 was determined as 370 nM; in the data set with SUD4, 200 nM; in the data set on SU-DHL-6 it was 310 nM.
With `COc1cccc(C#Cc2cccc3nc([C@@H]4CC[C@H](C)N4c4nc(N)nc(N)c4C#N)n(-c4ccccc4)c(=O)c23)c1`, the inhibition was found to be 35% in data set [1], 9% in data set [7], 16% in data set [2] and 42% in data set [5]. For the same compound, the IC50 was found to be 450 nM with DOHH-2, 510 nM with SUD4 and 670 nM with SU-DHL-6.
